Test system: 13762 breast carcinoma xenografts
Assay: Paclitaxel treatment of tumor xenografts (PTCH immunohistochemistry, tumor volume)
Assay type: in vivo, rat
Conditions: rats, 20 mg/kg paclitaxel
Experimental: All animal work was carried out in the Small Animal Imaging Facility (SAIF) at the University of Texas M.D. Anderson Cancer Center under an approved Institutional Animal Care and Use Committee (IACUC) protocol. Female Fischer 344 rats (150 ± 25 g, n = 6) (Harlan Sprague-Dawley, Indianapolis, IN) were inoculated subcutaneously with 0.1 mL of a 13762 breast carcinoma cell suspension (10^5 cells/rat of a breast tumor cell line specific to Fischer rats) into the hind legs using 25-gauge needles. Studies were performed 12–14 days after inoculation when tumors reached approximately 1 cm in diameter. For treatment studies, rats were injected with 20 mg/kg paclitaxel and reimaged 7 days later. After the posttreatment scan, tumors were removed and formalin sections were made. Control tumors were taken from untreated […] 13 days after inoculation. Sections were stained with an anti-patched antibody (Santa Cruz) using a peroxide-based immunohistochemical detection kit (Dako) according to the manufacturer's instructions.

## CC(=O)O[C@H]1C(=O)[C@@]2(C)[C@H]([C@H](OC(=O)c3ccccc3)[C@]3(O)C[C@H](OC(=O)[C@H](O)[C@@H](NC(=O)c4ccccc4)c4ccccc4)C(C)=C1C3(C)C)[C@]1(OC(C)=O)CO[C@@H]1C[C@@H]2O [paclitaxel]
  tumor volume after treatment: decrease
Seven days after treatment, immunohistochemistry
  PTCH protein expression in the residual tumor: increase
